US8999389B2, “Bioresorbable controlled-release composition” (priority 2006, dated 2015)

Assay: Intravenous bolus dosing of 2-hydroxyflutamide in dogs, plasma concentration
Format: in vivo, Labrador dogs
Details: single intravenous bolus 25 mg
Experimental: First, an animal study was performed with 4 sexually mature Labrador dogs, aged 1 year, under approval by the Animal Ethics Committee of University of Gothenburg.
The male dogs (Labrador) were first given an intravenous single bolus dose of 2-hydroxyflutamide or 25 mg (10 ml solution) per animal during 30 seconds. The composition of the intravenous solution was sterile saline 54%, sterile polyethyleneglycol 400, 46% and 6% ethanol (95%).
After injection into vena jugularis, blood samples were taken at predetermined time points during 10 hours.

time after which plasma concentration was below the detection limit: about 10 hrs
SMILES: CC(C)(O)C(=O)Nc1ccc([N+](=O)[O-])c(C(F)(F)F)c1 [2-hydroxyflutamide]
